Some test systems named below: BT-549 breast; EKVX NSCLC; HOP-62 NSCLC; NCI-H23 lung; PC-3 prostate; SK-MEL-28 melanoma; T-47D breast; UO-31 renal; DLD-1 colon; LXFL 529 NSCLC.
Holding throughout (assay): DTP human tumour cell line panel, 48 h

Where “and” joins values, the source holds several entries; their conditions need not be identical. Equal entries are not always repeated.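 Values below derive from 48-hour exposures of cells grown in 96-well plates, with endpoints linearly interpolated between the two concentrations bracketing the appropriate inhibition level. The concentration for 50% growth inhibition is given as GI50. TGI denotes the concentration required for complete inhibition of growth.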

Usually GI50 stands for the concentration that inhibits growth by half. What is called TGI is the concentration giving total growth inhibition. Low values mean greater sensitivity of the cells, high ones lower sensitivity of the cells.

`COc1cc(C(O)c2nc3ccccc3s2)cc(OC)c1OC` (configuration not stated): the GI50 in the assay on BT-549 breast is 60.6 µM; in the assay on EKVX NSCLC it was 2.83 µM; with HOP-62 NSCLC it was 43.8 µM; in the assay with NCI-H23 lung, 7.32 µM; with PC-3 prostate, 15.9 µM; with SK-MEL-28 melanoma it was above 100 µM. For the same compound, the GI50 with T-47D breast was 17.3 µM; with UO-31 renal it was 6.2 µM. The concentration for total growth inhibition (TGI) with BT-549 breast, in the assay with EKVX NSCLC, in the assay with HOP-62 NSCLC, in the assay with NCI-H23 lung, with PC-3 prostate and in the assay with SK-MEL-28 melanoma was above 100 µM each time. Besides, the TGI with T-47D breast and in the assay with UO-31 renal was above 100 µM each time.

For the compound `COc1ccc(C(=O)COc2cccc(/C=C3\CSc4ccccc4C3=O)c2)cc1`, the GI50 in the assay with BT-549 breast is 1.8 µM; in the assay with EKVX NSCLC, 5.3 µM; in the assay with HOP-62 NSCLC, 2.84 µM; with NCI-H23 lung, 2.14 µM; in the assay with PC-3 prostate, 2.03 µM; with SK-MEL-28 melanoma, 2.04 µM. The figures for the GI50 with T-47D breast and in the assay with UO-31 renal were 2.33 µM and 1.69 µM, respectively. Besides, the TGI in the assay on BT-549 breast is 3.67 µM; with EKVX NSCLC, 14.8 µM; in the assay on HOP-62 NSCLC, 7.6 µM; with NCI-H23 lung, 4.78 µM; in the assay on PC-3 prostate it was 5.03 µM; with SK-MEL-28 melanoma, 3.71 µM. For the same compound, the TGI in the assay on T-47D breast came out at 5.79 µM; with UO-31 renal, 3.46 µM.

Take `CCc1ccccc1N1CCN(C(=O)c2cc(OC)c(OC)c(OC)c2)CC1`: the TGI with BT-549 breast was 5.87 µM; in the assay with DLD-1 colon, above 100 µM; in the assay on EKVX NSCLC, 20.9 µM; in the assay with HOP-62 NSCLC, above 46.2 µM; in the assay on NCI-H23 lung, 23.3 µM; with PC-3 prostate, above 9.26 µM. Moreover, the values for the TGI in the assay on SK-MEL-28 melanoma, in the assay on T-47D breast and in the assay on UO-31 renal were above 70.2 µM, 67.9 µM and 63.4 µM, respectively.

As to `O=C1/C(=C/c2ccccc2F)CNC/C1=C\c1ccccc1F`, the GI50 was 0.434 µM and 0.782 µM with BT-549 breast; 0.775 µM and 1.9 µM in the assay on EKVX NSCLC; 0.53 µM and 0.33 µM in the assay with HOP-62 NSCLC; 0.693 µM and 0.838 µM in the assay with NCI-H23 lung; 0.295 µM and 0.551 µM in the assay with PC-3 prostate; 2.02 µM and 1.79 µM in the assay with SK-MEL-28 melanoma. In addition, the GI50 with T-47D breast was 1.07 µM and 2.6 µM; in the assay on UO-31 renal, 0.567 µM and 0.753 µM. For the same compound, the TGI was 1.43 µM and 2.25 µM in the assay on BT-549 breast; 2.58 µM and 5.26 µM in the assay on EKVX NSCLC; 2.65 µM and 1.01 µM in the assay on HOP-62 NSCLC; 1.81 µM and 3.27 µM with NCI-H23 lung; 1.07 µM and 3.2 µM in the assay on PC-3 prostate; 4.7 µM and 3.63 µM in the assay with SK-MEL-28 melanoma. Further, the total growth inhibition concentration (TGI) in the assay with T-47D breast is 6.1 µM and 12.2 µM; in the assay on UO-31 renal, 1.8 µM and 2.05 µM.

On to `O=c1c2cc(Br)ccc2nc(-c2ccccc2Cl)n1NCC1(O)OCC(O)C(O)C1O` (configuration not stated), for which the TGI with EKVX NSCLC, with HOP-62 NSCLC, with LXFL 529 NSCLC, in the assay with NCI-H23 lung, in the assay with SK-MEL-28 melanoma and in the assay with UO-31 renal was above 100 µM throughout.

For `O=C1c2ccc3c4c5ccc(c24)C(=O)N1CCCOCCCCOCCCNCc1ccc(cc1)CNCCCOCCCCOCCCN(C3=O)C5=O`, the GI50 in the assay with BT-549 breast is 1.62 µM; in the assay on EKVX NSCLC it was 0.824 µM; in the assay with HOP-62 NSCLC, 1.15 µM; with NCI-H23 lung it was 0.93 µM; in the assay on PC-3 prostate it was 0.904 µM; in the assay on SK-MEL-28 melanoma, 0.894 µM. The values for the GI50 in the assay on T-47D breast and in the assay with UO-31 renal were 0.997 µM and 1.1 µM, respectively. The TGI in the assay on BT-549 breast turned out to be 4.87 µM; with EKVX NSCLC it was 1.63 µM; with HOP-62 NSCLC it was 3.31 µM; with NCI-H23 lung, 1.81 µM; with PC-3 prostate, 2.76 µM; with SK-MEL-28 melanoma, 1.63 µM. Moreover, the concentration for total growth inhibition (TGI) was found to be 2.28 µM in the assay with T-47D breast and 5.12 µM in the assay on UO-31 renal.

Turning to `CN(c1ccc(NC(=O)Nc2ccc(OC(F)(F)F)cc2)cc1)c1ccnc(Nc2cccc(S(N)(=O)=O)c2)n1`, the GI50 in the assay with BT-549 breast is 4.31 µM; in the assay on EKVX NSCLC it was 5.33 µM; in the assay on HOP-62 NSCLC, 3.71 µM; in the assay on NCI-H23 lung it was 2.15 µM; in the assay with PC-3 prostate, 1.45 µM; in the assay on SK-MEL-28 melanoma, 3.42 µM. The GI50 is 3.51 µM in the assay with T-47D breast and 4.63 µM with UO-31 renal. The concentration for total growth inhibition (TGI) came to 8.3 µM in the assay with BT-549 breast; 12.4 µM with EKVX NSCLC; 8.1 µM with HOP-62 NSCLC; 6.25 µM with NCI-H23 lung; 5.72 µM in the assay with PC-3 prostate; 7 µM in the assay on SK-MEL-28 melanoma. Further, the TGI in the assay on T-47D breast amounted to 9.35 µM; with UO-31 renal, 11.9 µM.

With `O=c1[nH]nc2ccccc2c1Cl`, the total growth inhibition concentration (TGI) in the assay on DLD-1 colon came out at 22.8 µM; in the assay with EKVX NSCLC, 15.5 µM; in the assay with HOP-62 NSCLC, 40.7 µM; in the assay on NCI-H23 lung it was 35.9 µM; in the assay on UO-31 renal, 28.2 µM.

With `CC(C)C[C@H](NC(=O)[C@H]1O[C@@H]1C(=O)O)C(=O)NCCc1ccc(O)cc1`, the GI50 with BT-549 breast, in the assay on EKVX NSCLC, with HOP-62 NSCLC, in the assay with NCI-H23 lung, in the assay on PC-3 prostate and in the assay on SK-MEL-28 melanoma was above 100 µM throughout. In addition, the GI50 was above 100 µM with T-47D breast and 38.4 µM in the assay with UO-31 renal. Moreover, the TGI in the assay with BT-549 breast, in the assay on EKVX NSCLC, in the assay on HOP-62 NSCLC, in the assay on NCI-H23 lung, in the assay with PC-3 prostate and in the assay on SK-MEL-28 melanoma was above 100 µM in each case. For the same compound, the TGI in the assay on T-47D breast and in the assay with UO-31 renal was above 100 µM in each case.

Regarding `CCc1cccc2c3c(sc12)C(c1ccc(Cl)cc1)C(C#N)=C(N)O3` (configuration not stated), the GI50 in the assay on BT-549 breast is 0.983 µM; in the assay on EKVX NSCLC it was 1.08 µM; with HOP-62 NSCLC it was 0.623 µM; in the assay on NCI-H23 lung it was 0.692 µM; with PC-3 prostate, 0.39 µM; in the assay with SK-MEL-28 melanoma, 2.06 µM. The results for the GI50 with T-47D breast and with UO-31 renal were 0.493 µM and 0.691 µM, respectively. Moreover, the concentration for total growth inhibition (TGI) in the assay with BT-549 breast was 15.6 µM; in the assay on EKVX NSCLC it was 14.7 µM; with HOP-62 NSCLC, 11.1 µM; in the assay with NCI-H23 lung, 5.18 µM; in the assay with PC-3 prostate, 10.7 µM; in the assay on SK-MEL-28 melanoma, 19.3 µM. Also, the total growth inhibition concentration (TGI) with T-47D breast came out at 16.1 µM; in the assay with UO-31 renal, 13.4 µM.

The values above are taken from PubChem BioAssay (NCI).
